Test results: publication PMC6019362, “^99mTc标记T7肽及其在裸鼠非小细胞肺癌模型体内的生物分布研究” (Chinese Journal of Lung Cancer, 2014)

How the values were obtained:
荷人NCI-H157裸鼠肺癌模型 = tested on: 荷人NCI-H157裸鼠肺癌模型; set-up: species or system BALB/c裸鼠; details: in vivo
Experimental: 将NCI-H157细胞株培养至对数生长期，弃去培养液，PBS清洗2次，0.25%胰酶消化，收集细胞，离心，生理盐水重悬并计数。无菌条件下，每只裸鼠右后肢背部皮下注射6×10^6个/200 μL的NCI-H157细胞悬液。裸鼠置于天津市实验动物中心SPF级动物房饲养，当肿瘤长径达0.6 cm-1.0 cm时进行实验(约30 d)。 将荷瘤裸鼠随机分成5组(0.5 h、1 h、2 h、4 h和8 h)，每组5只，分别尾静脉注射3.7 MBq/100 μL的^99mTc-T7溶液，注射后分别在0.5 h、1 h、2 h、4 h和8 h股动脉放血处死，分别取心、肝、脾、肺、肾、肌肉、骨骼、脑、肿瘤、小肠、胃，称湿重，测量γ计数，计算各脏器的每克组织注射剂量百分比(%ID/g)并分析肿瘤/非肿瘤(T/NT)比值。

[1] = type: in vitro ADME, human
Experimental: 薄层色谱法检测标记率及放化纯度，以硅胶板为固定相，丙酮作为展开系统，毛细管点样，放射性γ计数器进行检测。稳定性检测:取500 μL的^99mTc-T7溶液分别加入1 mL的生理盐水和1 mL人血清中，37 ℃孵育8 h，用薄层色谱法检测放化纯度。

TMPFLFCNVNDVCNFASRNDYSKKK [^99mTc-T7, 羰基锝法标记的肿瘤抑素T7肽, ^99mTc(CO)3^+ labelled 25-mer, integrin αvβ3 targeted imaging probe]
肿瘤/肌肉放射性比值 (T/NT) (荷人NCI-H157裸鼠肺癌模型): > 5
血脑屏障通过 (blood-brain barrier passage) (荷人NCI-H157裸鼠肺癌模型): 不能正常通过血脑屏障
8 h血放射性摄取值 (%ID/g) 相对于0.5 h (荷人NCI-H157裸鼠肺癌模型; mouse, iv, 3.7 MBq, 8 h): 26%
放化纯 (radiochemical purity) after incubation [1]: > 90%
